The record followed here is article PMC6627609, “Targeting Quorum Sensing: High-Throughput Screening to Identify Novel LsrK Inhibitors” (International Journal of Molecular Sciences, 2019).

Structures can show the parent of a compound that is named as a salt.

Sequence of LsrK (Q8ZKQ6 whole entry): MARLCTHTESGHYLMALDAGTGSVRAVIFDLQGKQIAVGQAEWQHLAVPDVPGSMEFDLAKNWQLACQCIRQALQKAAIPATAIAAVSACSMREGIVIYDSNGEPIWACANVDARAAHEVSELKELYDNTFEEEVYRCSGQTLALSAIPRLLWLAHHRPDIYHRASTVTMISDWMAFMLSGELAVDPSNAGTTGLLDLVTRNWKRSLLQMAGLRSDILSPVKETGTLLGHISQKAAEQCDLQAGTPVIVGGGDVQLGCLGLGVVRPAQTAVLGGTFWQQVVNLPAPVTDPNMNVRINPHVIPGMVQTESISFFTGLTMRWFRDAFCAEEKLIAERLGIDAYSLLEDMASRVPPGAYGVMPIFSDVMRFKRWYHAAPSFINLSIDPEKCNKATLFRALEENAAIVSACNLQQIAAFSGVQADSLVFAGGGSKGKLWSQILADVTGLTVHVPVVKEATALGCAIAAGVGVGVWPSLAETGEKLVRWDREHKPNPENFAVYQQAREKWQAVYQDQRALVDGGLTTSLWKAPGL

One test addresses LsrK (Salmonella typhimurium, UniProt Q8ZKQ6). The test can be described thus: biochemical. The class given is biochemical, S. typhimurium.
Details: not given
On to `O=C(NC(=O)c1c(F)cccc1F)Nc1cc(Cl)c(OC(F)(F)C(F)C(F)(F)F)cc1Cl` (stereo not drawn) [LUFENURON], for which the inhibition at 50 µM stood at 2%.
On to `COc1cc(OC)c2c(=O)cc(-c3ccccc3)oc2c1` [CHRYSIN DIMETHYL ETHER], for which the inhibition at 50 µM amounted to 1%.
Same read-out and setting: for `S=P(N1CC1)(N1CC1)N1CC1` [THIOTEPA] the value was 14%.
`COc1ccc(-c2cc(=O)c3c(OC(C)=O)cc(OC(C)=O)cc3o2)cc1` [ACACETIN DIACETATE]: the inhibition at 50 µM was found to be 0%.
Same read-out and setting: for `CCN(CC)CCCC(C)Nc1c2ccc(Cl)cc2nc2ccc(OC)cc12` (stereo not drawn) [QUINACRINE HYDROCHLORIDE] the value was 3%; for `COC(=O)C1=C(C)NC(C)=C(C(=O)OCC(C)C)C1c1ccccc1[N+](=O)[O-]` (stereo not drawn) [NISOLDIPINE], 154%.
Still for that read-out and setting: for `CC(C)[C@@H](C)/C=C/[C@@H](C)[C@H]1CC[C@H]2C3=CC=C4C[C@@H](O)CC[C@]4(C)[C@H]3CC[C@]12C` [ERGOSTEROL] the value was 0%; for `CC(C)C(=O)Nc1ccc([N+](=O)[O-])c(C(F)(F)F)c1` [FLUTAMIDE], 2%; for `COc1ccc(C(=O)/C=C/c2ccccc2)cc1` [4'-METHOXYCHALCONE], 12%.
Still for that read-out and setting: the figure for `CC(COc1ccccc1)NC(C)C(O)c1ccc(O)cc1` (stereo not drawn) [ISOXSUPRINE HYDROCHLORIDE] is 2%; for `CC(C)Nc1ncccn1` [ISAXONINE] it is 0%.
Regarding `OC(CCN1CCCC1)(c1ccccc1)C1CCCCC1` (stereo not drawn) [PROCYCLIDINE HYDROCHLORIDE], the inhibition at 50 µM is 0%.
With `CN[C@H](CC(C)C)C(=O)N[C@H]1C(=O)N[C@@H](CC(N)=O)C(=O)N[C@H]2C(=O)N[C@H]3C(=O)N[C@H](C(=O)N[C@H](C(=O)O)c4cc(O)cc(O)c4-c4cc3ccc4O)[C@H](O)c3ccc(c(Cl)c3)Oc3cc2cc(c3O[C@@H]2O[C@H](CO)[C@@H](O)[C@H](O)[C@H]2O[C@H]2C[C@](C)(N)[C@H](O)[C@H](C)O2)Oc2ccc(cc2Cl)[C@H]1O` [VANCOMYCIN HYDROCHLORIDE], the inhibition at 50 µM worked out at 0%.
Consider `Nc1nc2nc[nH]c2c(=S)[nH]1` [THIOGUANINE], for which the inhibition at 50 µM came out at 1%.
`C[N+](C)(C)CCCCCCCCCC[N+](C)(C)C` [DECAMETHONIUM BROMIDE]: the inhibition at 50 µM came to 0%.
Same read-out and setting: the figure for `NS(=O)(=O)c1cc2c(cc1Cl)NC(C(Cl)Cl)NS2(=O)=O` (stereo not drawn) [TRICHLORMETHIAZIDE] is 1%.
On the same count and under the same terms, for `C[C@]12CC[C@H]3[C@@H](CC[C@]4(O)C[C@@H](O)CC[C@]34C=O)[C@@]1(O)CC[C@@H]2C1=CC(=O)OC1` [STROPHANTHIDIN] the value was 0%.
Turning to `O=C(O)c1cc(=O)[nH]c(=O)[nH]1` [OROTIC ACID], the inhibition at 50 µM stood at 1%.
On the same count and under the same terms, for `CCN1CCN(c2cc3c(cc2F)c(=O)c(C(=O)O)cn3C2CC2)CC1` [ENROFLOXACIN] the value was 1%; for `O=c1c(O)c(-c2ccc(O)cc2O)oc2cc(O)cc(O)c12` [MORIN], 154%; for `OC[C@H]1O[C@@H](n2cnc3c(NCc4ccco4)ncnc32)[C@H](O)[C@@H]1O` [KINETIN RIBOSIDE], 0%.
For the molecule `Nc1ccc(C(=O)O)c(O)c1` [AMINOSALICYLATE SODIUM], the inhibition at 50 µM was determined as 1%.
Regarding `CCC1(C)CC(=O)NC1=O` (stereo not drawn) [ETHOSUXIMIDE], the inhibition at 50 µM turned out to be 17%.
On the same count and under the same terms, for `N#C/C(=C\c1cccc(O)c1)C(=O)O` [alpha-CYANO-3-HYDROXYCINNAMIC ACID] the value was 2%; for `CC[C@@H](CO)NC(=O)[C@@H]1C=C2c3cccc4[nH]cc(c34)C[C@H]2N(C)C1` [METHYLERGONOVINE MALEATE], 1%; for `C[C@H]1COC2=C1C(=O)C(=O)c1c2ccc2c1CCCC2(C)C` [CRYPTOTANSHINONE], 16%.
Still for that read-out and setting: the figure for `CC[C@@]1(O)C(=O)OCc2c1cc1n(c2=O)Cc2cc3cc(O)ccc3nc2-1` [10-HYDROXYCAMPTOTHECIN] is 1%.
The same measure, in the same setting: for `C[C@@H]1CC[C@H]2C(C)(C)[C@H]3C[C@@]12CC[C@@]3(C)O` [CEDROL] the value was 13%; for `COC1=CC(=O)O[C@@H](/C=C/c2ccccc2)C1` [KAWAIN], 0%; for `CO[C@H]1C[C@@H]2CC[C@@H](C)[C@@](O)(O2)C(=O)C(=O)N2CCCC[C@H]2C(=O)O[C@H]([C@H](C)C[C@@H]2CC[C@@H](O)[C@H](OC)C2)CC(=O)[C@H](C)/C=C(\C)[C@@H](O)[C@@H](OC)C(=O)[C@H](C)C[C@H](C)/C=C/C=C/C=C/1C` [SIROLIMUS], 4%.
Take `CC[C@H]1[C@@H]2C[C@H]3[C@@H]4N(C)c5ccccc5[C@]45C[C@@H]([C@H]2[C@H]5O)N3[C@@H]1O` [AJMALINE]: the inhibition at 50 µM is 0%.
Still for that read-out and setting: the figure for `CC(CN(C)C)CN1c2ccccc2CCc2ccccc21` (stereo not drawn) [TRIMIPRAMINE MALEATE] is 111%; for `O=C(O)c1ccccc1OP(=O)(O)O` [FOSFOSAL] it is 0%.
On the same count and under the same terms, for `COc1c(O)cc(O)cc1O` [IRETOL] the value was 1%.
Same read-out and setting: the figure for `COc1c(O)cccc1O` [2-METHOXYRESORCINOL] is 0%; for `CO/N=C(\C(=O)N[C@@H]1C(=O)N2C(C(=O)O)=C(COC(N)=O)CS[C@H]12)c1ccco1` [CEFUROXIME SODIUM] it is 3%; for `CC(C)CC(NC(=O)[C@H](C)N)C(=O)O` (mixture of isomers) [ALANYL-dl-LEUCINE] it is 2%.
Regarding `CN1C(C)(C)CCCC1(C)C` [PEMPIDINE TARTRATE], the inhibition at 50 µM came out at 2%.
The same measure, in the same setting: the figure for `O=c1c(O)c(-c2ccc(O)c(O)c2)oc2c(O)c(O)cc(O)c12` [GOSSYPETIN] is 115%; for `Oc1ccc2c(c1)OC[C@]1(O)Cc3cc(O)c(O)cc3[C@H]21` [BRAZILIN] it is 133%; for `CC[C@H](/C=C/[C@@H](C)[C@H]1CC[C@H]2[C@@H]3CC=C4C[C@@H](O)CC[C@]4(C)[C@H]3CC[C@]12C)C(C)C` [STIGMASTEROL] it is 1%.
On the same count and under the same terms, for `O=C1c2ccccc2C(=O)c2c(O)c(O)cc(O)c21` [PURPURIN] the value was 45%; for `C=CCSCC1Nc2cc(Cl)c(S(N)(=O)=O)cc2S(=O)(=O)N1` (stereo not drawn) [ALTHIAZIDE], 2%.
In the case of `COc1cc2nc(N3CCN(C(=O)C4CCCO4)CC3)nc(N)c2cc1OC` (stereo not drawn) [TERAZOSIN HYDROCHLORIDE], the inhibition at 50 µM turned out to be 1%.
The same measure, in the same setting: for `Cc1cc(OC(=O)c2c(C)cc(O)cc2O)cc(O)c1C(=O)O` [LECANORIC ACID] the value was 0%; for `Cc1ccc(C(=O)Nc2ccc(S(=O)(=O)O)c3cc(S(=O)(=O)O)cc(S(=O)(=O)O)c23)cc1NC(=O)c1cccc(NC(=O)Nc2cccc(C(=O)Nc3cc(C(=O)Nc4ccc(S(=O)(=O)O)c5cc(S(=O)(=O)O)cc(S(=O)(=O)O)c45)ccc3C)c2)c1` [SURAMIN], 110%.
Turning to `S=C=NCc1ccccc1` [BENZYL ISOTHIOCYANATE], the inhibition at 50 µM came out at 2%.
Still for that read-out and setting: for `O=C(C1CCCCC1)N1CC(=O)N2CCc3ccccc3C2C1` (stereo not drawn) [PRAZIQUANTEL] the value was 0%.
Still for that read-out and setting: for `CN(C/C=C/C#CC(C)(C)C)Cc1cccc2ccccc12` [TERBINAFINE HYDROCHLORIDE] the value was 1%.
Still for that read-out and setting: for `N#C/C(=C\c1ccc(O)cc1)C(=O)O` [alpha-CYANO-4-HYDROXYCINNAMIC ACID] the value was 1%.
For `CC[C@@]1(O)C(=O)OCc2c1cc1n(c2=O)Cc2cc3ccccc3nc2-1` [CAMPTOTHECIN], the inhibition at 50 µM is 1%.
For `O=C(/C=C/c1ccccc1)c1ccc(O)cc1` [4'-HYDROXYCHALCONE], the inhibition at 50 µM stood at 38%.
Still for that read-out and setting: the figure for `COc1ccc(/C=C/C(=O)Nc2ccccc2C(=O)O)cc1OC` is 15%; for `CCCCCCCCCCCCCCCC(=O)OC[C@H](O)[C@H]1OC(=O)C(O)=C1O` [ASCORBYL PALMITATE] it is 28%.
Still for that read-out and setting: the figure for `C[C@]12CC[C@@H](O)C[C@@H]1CC[C@@H]1[C@@H]2CC[C@]2(C)C(=O)CC[C@@H]12` [ANDROSTERONE] is 1%; for `O=C(OOC(=O)c1ccccc1)c1ccccc1` [BENZOYL PEROXIDE] it is 11%; for `OCc1cccnc1` [NICOTINYL ALCOHOL TARTRATE] it is 1%.

The test is the same for the next values; noted with them: 50 µM.
In the case of `Cc1cc2nc3c(=O)[nH]c(=O)nc-3n(C[C@H](O)[C@H](O)[C@H](O)COP(=O)([O-])O)c2cc1C.[Na+]` [RIBOFLAVIN 5-PHOSPHATE SODIUM], the “Inhibition (%)” value is 1.
For `CO/N=C(\C(=O)N[C@@H]1C(=O)N2C(C(=O)OCOC(=O)C(C)(C)C)=C(/C=C\c3scnc3C)CS[C@H]12)c1csc(N)n1` [CEFDITORIN PIVOXIL], the “Inhibition (%)” value was 2.
On the same count and under the same terms, for `COc1cc(OC)c(C(C)=O)c(OC)c1` [METHYLXANTHOXYLIN] the value was 4.
`O=P([O-])(O)C(O)(Cc1cccnc1)P(=O)(O)O.[Na+]` [RISEDRONATE SODIUM HYDRATE]: the “Inhibition (%)” value is listed as 2.
Same read-out and setting: for `COc1ccc(-c2oc3ccccc3c(=O)c2O)cc1OC` [3-HYDROXY-3'.4'-DIMETHOXYFLAVONE] the value was 0.
As to `O=C1C(Cl)=C(Cl)C(=O)c2c(O)ccc(O)c21` [2.3-DICHLORO-5.8-DIHYDROXYNAPTHOQUINONE], the “Inhibition (%)” value stood at 30.
Consider IVERMECTIN, for which the “Inhibition (%)” value is on record as 1.
The same measure, in the same setting: the figure for `C=CCc1cc(OC)c2c(c1OC)OCO2` [APIOLE] is 1.
Still for that read-out and setting: the figure for `CC(=O)OCC1=C(C(=O)O)N2C(=O)[C@@H](N)[C@H]2SC1` [7-AMINOCEPHALOSPORANIC ACID] is 64.
The same measure, in the same setting: the figure for `CC(=O)O[C@H]1C[C@@H](OC(C)=O)C(C)(C)C2C[C@@H](O)[C@]3(C)C(CC[C@@]4(C)[C@H](c5ccoc5)OC(=O)[C@H]5O[C@]543)[C@]21C` (stereo partly drawn) [7-DEACETYLKHIVORIN] is 0; for `COc1cc(-c2coc3cc(OCc4ccccc4)c(OC)c(O)c3c2=O)cc(O)c1OC` [IRIGENIN. 7-BENZYL ETHER] it is 2; for `CC(=O)OCC1=C(C(=O)[O-])N2C(=O)[C@@H](NC(=O)CCCC(N)C(=O)O)[C@H]2SC1.[Na+]` (stereo partly drawn) [CEPHALOSPORIN C SODIUM] it is 32.
